Experimental data reported in US11607458B2 (Georgia State University Research Foundation, Inc, priority 2017, dated 2023).

How the values were obtained:
[1] = Determination of the lactonization rate constants (k1) by HPLC; format: physicochemical; settings: for Lactonization rate constant k1: r.t., PBS (15% DMSO)
Description: General procedure for the determination of the lactonization rate constants. To a 9 mL PBS in a 20-mL vial was added a solution of the respective tetrazine prodrug (500 μL, 500 μM). Then 1 mL of the respective alkyne (50 mM in DMSO) was added to afford a final concentration of 5 mM in PBS (15% DMSO). The reaction was stirred at r.t. Every 30 min about 500 μL the reaction mixture was taken out and 20 μL of them was injected into the HPLC by an autosampler; the rest of them was poured back to the reaction mixture. The reaction rate constant, k1, was determined by fitting the area in HPLC chromatogram of the intermediate versus time using eq. 3: Y=A exp(−k1t) eq. 3 where Y is the intermediate areas, and t is the time.

[2] = Release of the parent drug (Dox / dansyl amine) from prodrugs treated with alkynes, monitored by HPLC; format: physicochemical; settings: r.t, PBS 10% DMSO
Description: Standard curve of Dox concentration measurement. To four HPLC vials containing 0.9 mL PBS (size: 1.5 mL) were added 25, 15, 20, 10 μL Dox stock solution (1 mM) respectively. Then defined amounts DMSO (975, 985, 980, and 990 μL) were added to each vial to afford final concentration of four vials were 25, 15, 20, 10 μM in PBS (10% DMSO), respectively. The samples were analyzed with HPLC method A. Dox retention time: 4.0 min.
Standard curve for DA concentration measurement. To four HPLC vials containing 0.9 mL PBS (size: 1.5 mL) were added 25, 15, 20, 10 μL Dox stock solution (1 mM) respectively. Then defined amounts DMSO (975, 985, 980, and 990 μL) were added to each vial to afford final concentration of four vials were 25, 15, 20, 10 μM in PBS (10% DMSO), respectively. The samples were analyzed with HPLC method B. DA retention time: 5.8 min.
General procedures HPLC studies of reaction kinetics. To three 20-ml vials with 9 mL PBS were added a solution of tetrazine prodrug (500 μL, 500 μM). 350 μL, 300 μL and 250 μL DMSO were added to vial respectively, and then 150 μL, 200 μL and 250 μL of the alkyne solution (50 mM in DMSO) were added to the vials to afford final concentrations of alkyne 0.75 mM, 1 mM and 1.25 mM in PBS (10% DMSO, 25 μM prodrug) respectively. The reaction was stirred at r.t or 37° C. respectively. Every 30 min about 500 μL reaction mixtures were taken out and 20 μL of them were injected into the HPLC by the autosampler; the rest of them were poured back to the reaction mixture. (Note: In the cases of prodrugs 1d or 1b reacting with alkyne 2d at 37° C., the final concentrations of 2d in the kinetic studies were 250 μM, 300 μM and 350 μM).
Results. The results from the reaction kinetics studies of the tetrazine-cyclooctyne system are summarized below in Table 4. Prodrugs 1d or 1b (25 μM) were treated with alkynes 2d, 2c ,2a, or 2b at different concentrations at room temperature (r.t.) or 37° C., respectively. The prodrug consumption and release of the parent drug were monitored by HPLC (Table 4).

[3] = alkyne 2c, no intermediates observed by HPLC

| Compound | Lactonization rate constant k1 ([1]; alkyne 2a 5 mM, Exp 2) | Lactonization rate constant k1 ([1]; alkyne 2a 5 mM, Expt 1) | Lactonization rate constant k1 ([1]; alkyne 2a 5 mM, Expt. 3) | k1 at r.t (lactonization) ([1]; alkyne 2a, n = 3) | Lactonization rate constant k1 ([1]; alkyne 2b 5 mM, Exp 2) | Lactonization rate constant k1 ([1]; alkyne 2b 5 mM, Expt 1) | Lactonization rate constant k1 ([1]; alkyne 2b 5 mM, Expt. 3) | k1 at r.t (lactonization) ([1]; alkyne 2b, n = 3) | k1 at r.t (lactonization) [1, 3] | Time of the Dox peak (in brackets in the Dox Peak % cell) ([2]; alkyne 2a) | Time of the Dox peak (in brackets in the Dox Peak % cell) ([2]; alkyne 2b) | Time of the Dox peak (in brackets in the Dox Peak % cell) ([2]; alkyne 2c) | Time of the Dox peak (in brackets in the Dox Peak % cell) ([2]; alkyne 2d) | Lactonization rate constant k1 ([1]; alkyne 2d 5 mM, Exp 2) | Lactonization rate constant k1 ([1]; alkyne 2d 5 mM, Expt 1) | Lactonization rate constant k1 ([1]; alkyne 2d 5 mM, Expt. 3) | k1 at r.t (lactonization) ([1]; alkyne 2d, n = 3) |
| --- | --- | --- | --- | --- | --- | --- | --- | --- | --- | --- | --- | --- | --- | --- | --- | --- | --- |
| C#CCOc1ccc(-c2nnc(C(=O)NC3CC(OC4CC(O)(C(=O)CO)Cc5c(O)c6c(c(O)c54)C(=O)c4c(OC)cccc4C6=O)OC(C)C3O)nn2)cc1 (stereo not drawn) [1b] | 0.206 h⁻¹ | 0.185 h⁻¹ | 0.229 h⁻¹ | 0.21 ± 0.04 h⁻¹ | 0.179 h⁻¹ | 0.223 h⁻¹ | 0.196 h⁻¹ | 0.20 ± 0.04 h⁻¹ | too fast to detect | 19 h | 18 h | 21 h | 48 h |  |  |  |  |
| COc1cccc2c1C(=O)c1c(O)c3c(c(O)c1C2=O)CC(O)(C(=O)CO)CC3OC1CC(NC(=O)c2nnc(-c3ccc(OCc4cn(CCCCCCCCC[P+](c5ccccc5)(c5ccccc5)c5ccccc5)nn4)cc3)nn2)C(O)C(C)O1 (stereo not drawn) [1c] |  |  |  |  | 0.191 h⁻¹ | 0.225 h⁻¹ | 0.265 h⁻¹ | 0.22 ± 0.05 h⁻¹ |  |  | 18 h |  |  |  |  |  |  |
| C#CCOc1ccc(-c2nnc(C(=O)NCCCOCCOCCOCCCNS(=O)(=O)c3cccc4c(N(C)C)cccc34)nn2)cc1 [1d] |  |  |  |  | 0.184 h⁻¹ | 0.162 h⁻¹ | 0.142 h⁻¹ | 0.16 ± 0.04 h⁻¹ | too fast to detect |  | 16 h | 20 h | 48 h | 0.0291 h⁻¹ | 0.0253 h⁻¹ | 0.0332 h⁻¹ | 0.029 ± 0.006 h⁻¹ |
